Test in all cases: NCI-60 cell line screen, 48 h
For assay [1], the system named is A498 renal.
Assay [2] relates to A549 NSCLC.
Assay [3] deals with LOX IMVI melanoma.
For assay [4], the system named is OVCAR-3 ovarian.
Assay [5] concerns OVCAR-8 ovarian.
For assay [6], the system named is RXF 393 renal.
In assay [7] the test system is SK-MEL-5 melanoma.
For assay [8], the system named is SN12C renal.
Assay [9] has as its system SR leukemia.
Assay [10] deals with SW-620 colon.

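Where inhibition never reached the appropriate level, the endpoint shown equals the highest concentration tested. Otherwise, values were interpolated linearly from a five-concentration, 48-hour dose response in 96-well plates. Abbreviation: GI50, concentration required for 50% inhibition of growth. TGI is the concentration that stops growth completely.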

Turning to `CCOC(=O)[C@@H](C)C[C@H](Cc1ccccc1)NC(=O)c1csc([C@@H](C[C@H](C(C)C)N(C)C(=O)[C@@H](NC(=O)[C@H]2C[C@H](O[Si](C)(C)C(C)(C)C)CCN2C)C(C)C)OC(C)=O)n1`, the GI50 in [1] was 0.167 µM; in assay [2], 0.379 µM; in assay [3], 0.304 µM; in assay [4], 0.192 µM; in assay [5], 0.744 µM; in assay [6], 0.159 µM. In addition, the GI50 in assay [7] is 0.187 µM; in assay [8], 0.389 µM; in assay [9], 0.0387 µM; in assay [10], 0.319 µM. Also, the TGI in assay [1] is 0.89 µM; in assay [2], more than 8.33 µM; in assay [3], more than 5.08 µM; in [4], more than 2.07 µM; in assay [5], more than 8.33 µM; in assay [6] it was 0.481 µM. Besides, the TGI is 1.39 µM in assay [7], 6.42 µM in assay [8], 1.82 µM in [9] and more than 8.33 µM in assay [10].
Consider `O=[N+]([O-])c1ccc2[nH]cc(-c3c4ccsc4cc4[nH]c5ccc([N+](=O)[O-])cc5c34)c2c1`, for which the GI50 is 0.726 µM in [1]; 1.12 µM in assay [2]; 0.834 µM in [3]; 0.354 µM in assay [4]; 1.25 µM in [5]; 0.592 µM in assay [6]. Moreover, the GI50 in assay [7] was 0.394 µM; in [8], 1.43 µM; in [9], 0.419 µM; in [10] it was 1.07 µM. Besides, the TGI in [1] was found to be 3.13 µM; in assay [2], 5.4 µM; in assay [3], 5.48 µM; in assay [4], 1.44 µM; in [5], 19.7 µM; in assay [6], 1.85 µM. Moreover, the TGI stood at 2.01 µM in assay [7], 11.4 µM in assay [8], 33.3 µM in [9] and 8.37 µM in assay [10].
With `C=CC(=O)N1CCCC(n2nc(-c3ccc(Oc4ccccc4)cc3)c3c(N)ncnc32)C1` (centres undefined), the GI50 is 0.124 µM in assay [1]; 11.9 µM in assay [2]; 4.26 µM in assay [3]; 6.23 µM in assay [4]; 6.56 µM in [5]; 2.68 µM in [6]. Moreover, the GI50 in assay [7] was 6.55 µM; in [8], 2.3 µM; in assay [9] it was 9.28 µM; in assay [10], 16.1 µM. In addition, the TGI in [1] worked out at 2.08 µM; in assay [2] it was 26 µM; in assay [3], 19.1 µM; in assay [4] it was 20.4 µM; in [5], 20.4 µM; in assay [6] it was 11.4 µM. In addition, the TGI in [7] worked out at 19.3 µM; in [8] it was 16.1 µM; in assay [9] it was 34.1 µM; in [10], 33.4 µM.
For the compound `c1ccc2c(c1)[I+]c1ccccc1-2`, the GI50 is 27.7 µM in assay [1]; more than 50 µM in assay [2]; more than 50 µM in [3]; more than 50 µM in [4]; more than 50 µM in assay [5]; more than 50 µM in assay [6]. Moreover, the GI50 in assay [7] is 24.3 µM; in [8], more than 50 µM; in assay [9] it was 19.4 µM; in assay [10], more than 50 µM. Moreover, the TGI in [1], in [2], in assay [3], in assay [4], in assay [5] and in assay [6] was more than 50 µM in each case. Also, the TGI in assay [7], in [8], in [9] and in assay [10] was more than 50 µM each time.
Regarding `O=C1c2cc(Br)ccc2-c2c1c1ccc([N+](=O)[O-])cc1c(=O)n2CCCCl`, the GI50 in assay [1] was 2.2 µM; in assay [2], 0.114 µM; in [3], less than 0.0248 µM; in assay [4], 1.11 µM; in [5], 0.293 µM; in assay [6] it was 0.487 µM. The GI50 in assay [7] was 0.24 µM; in assay [8] it was 0.0347 µM; in assay [9], less than 0.01 µM; in assay [10], 0.0533 µM. In addition, the TGI in [1] is 19.4 µM; in assay [2], more than 33.9 µM; in assay [3], 5.12 µM; in assay [4], 14.5 µM; in assay [5] it was 17.4 µM; in assay [6], 14.2 µM. Besides, the figures for the TGI in assay [7], in assay [8] and in assay [10] were 1.02 µM, 2.2 µM and more than 100 µM, respectively.
As for `O=C(C(O)c1cn(Cc2ccccc2)c2ccccc12)N1CCCCC1` (centres undefined), the TGI in [1] was more than 100 µM; in assay [2], more than 100 µM; in [3], more than 100 µM; in [4] it was more than 100 µM; in assay [5] it was more than 100 µM; in assay [6] it was more than 10 µM. Moreover, the TGI in [7], in [8], in assay [9] and in [10] was more than 100 µM throughout.
On to `CC1=CSC2=NC(c3ccc(Cl)c(Cl)c3)=CC(c3ccc(Cl)cc3)N12` (centres undefined), for which the GI50 in assay [1], in assay [2], in assay [3], in assay [4], in assay [5] and in assay [6] was more than 100 µM each time. Moreover, the GI50 is more than 100 µM in assay [7], more than 100 µM in assay [8], more than 61.3 µM in [9] and more than 100 µM in [10]. Further, the TGI in assay [1], in [2], in assay [3], in assay [4], in assay [5] and in assay [6] was more than 100 µM each time. For the same compound, the TGI in [7], in [8], in assay [9] and in assay [10] was more than 100 µM each time.
On to `Oc1ccc(N=Nc2ccc(Cl)cc2)cc1`, for which the TGI in [1] amounted to 41 µM; in [2] it was 31.3 µM; in assay [3] it was 24.6 µM; in [4] it was 55 µM; in assay [5], 38.2 µM; in assay [6], 30.3 µM. Besides, the TGI in [7] is 24.1 µM; in assay [8], 31.2 µM; in [9], 54.8 µM; in [10], more than 100 µM.
With `CCCCCCNC(=O)C1=C(C)NC(C)=C(C(=O)NCCCCCC)C1`, the TGI in assay [1], in assay [2], in assay [3], in [4], in assay [5] and in assay [6] was more than 100 µM each time. Further, the TGI in [7], in [8], in [9] and in [10] was more than 100 µM each time.
For the compound `CCCCCCC/C=C/[C@H]1O[C@]23C(=O)C[C@@]4(C[C@@H](OC5OC(CO)C(O)C(O)C5O)C[C@@H]4[C@H]2C=C1C)OC3=O` (some centres undefined), the GI50 is 4.78 µM in [1]; 8.48 µM in assay [2]; 2.4 µM in [3]; 2.28 µM in assay [4]; 6.08 µM in assay [5]; 4.41 µM in assay [6]. Also, the GI50 is 4.88 µM in assay [7], 5.46 µM in assay [8], 1.35 µM in [9] and 3.56 µM in assay [10]. Further, the TGI in assay [1] is 9.43 µM; in [2], more than 33.3 µM; in assay [3], 6.84 µM; in [4], 6.71 µM; in assay [5], more than 33.3 µM; in assay [6] it was 9.15 µM. The TGI was 9.37 µM in [7], 14.9 µM in assay [8], 13.6 µM in [9] and 11.7 µM in [10].
`CN(C)CCNc1nc2ccccc2c2c1c1c(n2Cc2ccccc2)-c2ccccc2C1=O`: the GI50 was 14.1 µM in assay [1]; 14.6 µM in assay [2]; 11.8 µM in assay [3]; 17.2 µM in assay [4]; 6.14 µM in assay [5]; 11.5 µM in [6]. The GI50 in [7] was 15.8 µM; in assay [8], 12.6 µM; in assay [9], 2.85 µM; in assay [10], 7.96 µM. The TGI in assay [1] is 28.9 µM; in assay [2], 46.6 µM; in [3] it was 26.1 µM; in assay [4], 34.8 µM; in assay [5], 52.2 µM; in [6] it was 37.6 µM. Besides, the TGI came to 30.9 µM in assay [7], 27.5 µM in [8], 20.9 µM in assay [9] and 24 µM in assay [10].
Regarding `CCCCNc1nc(NC(C)(C)C)nc(NC(C)(C)C)n1`, the GI50 in [1] is 2.98 µM; in assay [2] it was 4.41 µM; in [3], 3.39 µM; in assay [4] it was 12.6 µM; in [5], 4.74 µM; in assay [6] it was 8.07 µM. Moreover, the GI50 in assay [7] is 3.49 µM; in assay [8], 3.1 µM; in [9] it was 2.8 µM; in assay [10] it was 7.2 µM. Moreover, the TGI in assay [1] is 50.4 µM; in assay [2], more than 100 µM; in assay [3] it was 23.6 µM; in assay [4], more than 100 µM; in [5] it was more than 100 µM; in assay [6], 76.9 µM. Moreover, the TGI in assay [7] was 17.7 µM; in assay [8], more than 100 µM; in assay [9] it was 12.9 µM; in assay [10], more than 100 µM.
On to `O=C(O)C1CCc2ccc3ccccc3c2C1c1cccc2ccccc12` (centres undefined), for which the TGI in assay [1] turned out to be 67.2 µM; in assay [2], 36.4 µM; in assay [3], 36.3 µM; in assay [4], 29.8 µM; in assay [5] it was 52.1 µM; in [6] it was 39.6 µM. Moreover, the TGI in assay [7] was 30.1 µM; in assay [8], 59.3 µM; in [9] it was 49.9 µM; in [10], more than 100 µM.

Values taken from PubChem BioAssay (NCI).
